Reference: patent publication US20080009500A1, “Alpha-helix mimetics and methods relating to the treatment of fibrotic disorders” (priority 2005, published 2008)

What was measured:
[1] = system: TCF/β-catenin transcription; assay: Bleomycin model in Bat-Gal transgenic mice, X-Gal staining of lung sections (TCF/catenin-driven beta-galactosidase read-out); assay type: in vivo
Description: (§1) Using this murine model of pulmonary fibrosis in transgenic Bat-Gal mice, ICG-001 (5 mg/Kg/day, administered via minipump) blocked >95% of bleomycin-induced TCF/β-catenin transcription.
These mice have a Beta-Galactosidase transgene driven by a TCF/Catenin driven promoter (i.e. a read out for activated Wnt/catenin signaling). The mice were given intratracheal saline or bleomycin and either treated with ICG-001 (5 mgs/Kg/day subcutaneously) or saline as vehicle control. The mice were sacrificed and the lungs sectioned and stained with X-Gal (blue color) A) intratracheal bleo+saline. B) intracheal bleo+ICG-001 C) saline +saline.
The dose was selected because ICG-001 reduces TCF/β-Catenin driven β-Galactosidase expression >95% at 5 mgs/Kg/day.

[2] = system: bleomycin induced fibrosis in C57/B16 mice; assay: Murine model of bleomycin induced pulmonary fibrosis, lung sections stained for collagen (trichrome), body weight, survival; assay type: in vivo
Description: Murine models of bleomycin induced fibrosis have been developed in order to study fibrotic disease progression.
as §1
There is an absence of airway epithelium in lower left compared to upper left (see arrow heads) and extensive collagen deposition (lower left). On the sixth day, either saline (upper right) or ICG-001 (5 mgs/Kg/day) was administered for 10 days after which the mice were sacrificed and sectioned. Of interest is the upper right (saline treatment) showing lack of normal airway epithelialization, extensive collagen deposition and intra-airway hypercellularity (fibroblasts and inflammatory influx).
The procedures were performed using the animal model as described in Example 2 (FIG. 15), and the sectioned lungs were stained for collagen.

S100A4 = assay: RT-PCR for S100A4 in bleomycin treated mice; assay type: in vivo; conditions: 5 mgs/Kg/day s.c.
From the text: (§2) FIGS. 16 and 17 show RT-PCR data for S100A4 (FIG. 16) and collagen1A2 (FIG. 17), which are increased in the bleomycin treated mice (treated with saline control).

collagen1A2 = assay: RT-PCR for collagen1A2 in bleomycin treated mice; assay type: in vivo; conditions: 5 mgs/Kg/day s.c.
From the text: as §2

IPF patient fibroblasts = assay: Western blots for S100A4 and E-Cadherin on whole cell lysates of cultured IPF fibroblasts; assay type: cell-based, human
Description: Western blots for S100A4 (also know as FSP-1 or fibroblast specific protein-1) and E-Cadherin were performed on whole cell lysates (FIG. 20).

Aquaporin 5 = Aquaporin 5 immunostaining of lung tissue in the bleomycin animal model; assay type: in vivo, mice; conditions: bleomycin and ICG-001 vs bleomycin alone
Description: The aquaporins are water channels expressed in a variety of cell types. Aquaporin 5 is involved in the transportation of water across the apical surface of the alveolar epithelium and the epithelia of the submucosal glands in the upper airway and nasopharynx. (Krane, C. M., P.N.A.S. 98:14192-4, 2001; Yang, F. J. Biol. Chem. 278:32173-80, 2003). Because aquaporin 5 is a marker of Type 1 (differentiated) lung epithelium, its expression was assayed in lung tissue treated with bleomycin (FIG. 22A), bleomycin and ICG-001 (FIG. 22B), and saline (FIG. 22C), using the animal model as described in Example 2 (FIG. 15), and immunostaining with an antibody specific for Aquaporin 5.

[3] = C57/B16 mice, bleomycin 5 days, then 5 mgs/Kg/day for 10 days
[4] = bleomycin and ICG-001 treatment
[5] = IPF patient fibroblasts, RPMI 1640+10% FBS, 2 days

O=C1[C@H](Cc2ccc(O)cc2)N2C(=O)CCN(C(=O)NCc3ccccc3)[C@H]2CN1Cc1cccc2ccccc12 [ICG-001]
reduction of TCF/β-Catenin driven β-Galactosidase expression ([1]; 5 mgs/Kg/day): > 95% | bleomycin-induced TCF/β-catenin transcription blocked ([1]; transgenic Bat-Gal mice, 5 mg/Kg/day via minipump): > 95% | mortality ([2]; 5 mg/Kg/day): reduced mortality | disease progression ([2]; 5 mg/Kg/day, judged by mortality, histopathology and endogenous gene expression): not only halted but reversed disease progression | airway appearance in trichrome-stained lung sections [2, 3]: essentially normal | body weight [2, 3]: regained normal body weight | collagen levels in lung sections [2, 3]: normal collagen levels | survival ([2]; C57/B16 mice, bleomycin 5 days, then 5 mgs/Kg/day for 10 days, untreated controls did not survive): survived | alveolar fibrosis (lungs stained for collagen) [2, 4]: prevented alveolar fibrosis | interstitial fibrosis (lungs stained for collagen) [2, 4]: prevented interstitial fibrosis | fibrosis ([2]; over the 25 days of treatment): reversed fibrosis | S100A4 message (RT-PCR) (S100A4): reduced essentially to negative control | collagen1A2 message (RT-PCR) (collagen1A2): reduced essentially to negative control | S100A4 expression (whole cell lysates) (IPF patient fibroblasts; ATCC IPF cells, RPMI1640+10% FBS, 2 days): decreased S100A4 expression | E-cadherin expression at the mRNA level (IPF patient fibroblasts; IPF patient fibroblasts): also true at the mRNA level | E-cadherin expression (Western blot, whole cell lysates) (IPF patient fibroblasts; [5]): increased E-cadherin expression | S100A4 expression (Western blot, whole cell lysates) (IPF patient fibroblasts; [5]): decreased S100A4 expression | aquaporin 5 expression (immunostaining) (Aquaporin 5): greatly increased
